Reference: patent US8318801B2, “Cinnamic compounds and derivatives therefrom for the inhibition of histone deacetylase” (Naturewise Biotech & Medicals Corporation, priority 2009, dated 2012)
Entries after “also recorded” stand apart in the source; their conditions may differ.

Legend:
Format in all cases: cell-based
[1] = tested on: acetyl-Histone H3 in Human lung cancer A549 cells; test: Immunostaining of HDAC associated proteins; conditions: 7.5 μg/mL, 6 hrs (FIG. 3(c))
Experimental: (§1) Rat C6 glioma cells, Human breast cancer MCF-7 cells, and Human lung cancer A549 cells were seeded in 6-well plates. After 24 hrs of incubation in medium+10 BSA, Human breast cancer MCF-7 cells were treated with NBM-HB-OS01 (10.0 μg/mL) and vorinostat (SAHA, 5 μM) for 24 hours. Rat C6 glioma cells were treated with NBM-C-BX-OS01 (7.5 μg/mL) and vorinostat (SAHA, 5 μM) for 6 hours. Human lung cancer A549 cells were treated with NBM-C-BA-OS01 (7.5 μg/mL) and vorinostat (SAHA, 5 μM) for 6 hours. The treated cells were fixed in 80% methanol for 30 minutes and then washed 3 times with PBS solution. Cells were permeabilized with 0.3% Triton X-100 for 30 minutes, and then blocked in 10% fetal bovine serum (FBS) in PBS-T (0.1% Twin 20 in PBS) for 1 hour. The treated cells were detected with primary antibody against acetyl-Histone H3, acetyl-tubulin, and Gelsolin.

[2] = tested on: Human breast cancer MCF-7 cells; test: Inhibition of cancer cell growth and change of morphology
Experimental: (§2) Three cancer cell lines, Rat C6 giloma cells, Human breast cancer MCF-7 cells, and Human lung cancer A549 cells, were cultured in Dulbecco's modified Eagle's medium (DMEM; Gibco) containing 10% fetal bovine serum (FBS) and 1% penicillin/streptomycin. All three cell lines were maintained at 37° C. in a humidified atmosphere of 95% air and 5% CO2. For the experiments, the cells were seeded in 6-well plates. After 24 hours, the cells were treated with different concentrations of the various compounds.
(§3) Five cancer cell lines, Rat C6 giloma cells, Human breast cancer MCF-7 cells, Human glioma Hs683 cells, Human glioblastoma 05-MG cells, and Human lung cancer A549 cells, were cultured in Dulbecco's modified Eagle's medium (DMEM; Gibco) containing 10% fetal bovine serum (FBS) and 1% penicillin/streptomycin, and were kept at 37° C. in a humidified atmosphere of 95% air and 5% CO2. Human breast cancer. MDA-MB-231 cells were cultured in L-15 medium (Gibco) containing 10% fetal bovine serum (FBS), 1% penicillin/streptomycin, and 2 mM glutamine, and were maintained at 37° C. in a humidified atmosphere of 95% air and 0% CO2. For these experiments, the cells were seeded in 6-well plates or a 60-mm dish. After 24 hours, the cells were treated with different concentrations of the various compounds. […] Human glioblastoma 05-MG cells were treated with NBM-C-BCX-OS01 (1.0, 2.0, 4.0 μg/mL) and NBM-C-BMX-OS01 (1.0, 2.0, 4.0 μg/mL) for 72 hours (see FIG. 5(e)). […] The results were counted by a trypan blue exclusion assay (see FIG. 6(b)).

Rat C6 glioma cells = test: as above; conditions: for inhibition of cell growth: Rat C6 glioma cells
Experimental: as §2, §3

[3] = tested on: acetyl-tubulin in Rat C6 glioma cells; test: Immunostaining of HDAC associated proteins; conditions: 7.5 μg/mL, 6 hrs (FIG. 2(e))
Experimental: as §1

[4] = tested on: Human lung cancer A549 cells; test: Inhibition of cancer cell growth
Experimental: as §2, §3

[5] = tested on: acetyl-Histone H3, acetyl-Histone H4, acetyl-tubulin, p21 in Human breast cancer MCF-7 cells; test: Immunoblotting of hyperacetylated histone, tubulin and p21; conditions: 10 μg/mL (7.5 μg/mL elsewhere in the source) for 1, 2, 3 and 4 hrs (FIG. 2(d))
Experimental: (§4) Rat C6 glioma cells and Human breast cancer MCF-7 cells were seeded 5×10^5 cells in a 60-mm dish or 1×10^6 cells in a 100-mm dish. After 24 hours, Rat C6 glioma cells were treated with various concentrations of NBM-HB-OS01 (2.5, 5.0, 7.5, 10.0 μg/mL) for 72 hours and were treated with 10.0 μg/mL. NBM-HB-OS01 for 1, 2, 3, and 4 hours. Human breast cancer MCF-7 cells were treated with 7.5 μg/mL NBM-C-BX-OS01 for 1, 2, 3, and 4 hours.

[6] = tested on: Human colon cancer HT-29 cells; test: Inhibition of cancer cell growth; conditions: various concentrations, 48 hrs (FIG. 1(b))
[7] = tested on: Gelsolin in Human breast cancer MCF-7 cells; test: Immunostaining of HDAC associated proteins; conditions: 10 μg/mL, 24 hrs (FIG. 1(g))
Experimental: as §1

[8] = tested on: p21 mRNA in Rat C6 glioma cells; test: RT-PCR of cell-cycle related mRNA expression; conditions: 48 hrs, GAPDH internal control (FIG. 1(d))
Experimental: The cell-cycle related mRNA expression was examined by RT-PCR. The total RNA was isolated from the treated Rat C6 glioma cells using the RNeasy Mini Kit (Qiagen) as described by the manufacturer. The cDNA was produced from 500 ng of total RNA using ReverTra-Plus™ (TOYOBO).

[9] = tested on: Human lung cancer A549 cells; test: Cell cycle analysis by flow cytometry (propidium iodide); conditions: A549 cells, 2.5, 5.0, 7.5, 10.0 μg/mL, 24 hours (FIG. 1(c))
Experimental: Human lung cancer A549 cells, Human glioma Hs683 cells and Human glioblastoma 05-MG cells were seeded 1×10^6 cells in a 100-mm dish. After 24 hours of incubation in DMEM+10% BSA, Human lung cancer A549 cells were treated with NBM-HB-OS01 (2.5, 5.0, 7.5, 10.0 μg/mL) for 24 hours and were treated with NBM-C-BCX-OS01 (2.5, 5.0, 7.5 μg/mL) and NBM-C-BMX-OS01 (2.5, 5, 7.5 μg/mL) for 72 hours. Human glioblastoma 05-MG cells were treated with NBM-C-BCX-OS01 (1.0, 2.0, 4.0 μg/mL) and NBM-C-BMX-OS01 (1.0, 2.0, 4.0 μg/mL) for 72 hours. Human glioma Hs683 cells were treated with NBM-C-BCX-OS01 (1.0, 2.0, 4.0 μg/mL). For cell cycle analysis, cells were fixed in 80% ethanol for 1 hour (or overnight) at −20° C. and then incubated with 2 μg/mL RNase A for 30 minutes at 37° C. Cells were stained with propidium iodide ([…] PI) in PBS and analyzed using a Becton Dickinson flow cytometer, BD FACScan and CellQuest acquisition and analysis programs. […] Human glioma Hs683 cells were treated with NBM-C-BCX-OS01 (1.0, 2.0, 4.0 μg/mL) for 72 hours.

[10] = tested on: acetyl-Histone H3, acetyl-Histone H4, acetyl-tubulin, p21 in Rat C6 glioma cells; test: Immunoblotting of hyperacetylated histone, tubulin and p21
Experimental: as §4

[11] = various concentrations, 48 hrs (FIG. 1(a), 2(a))
[12] = Rat C6 glioma cells, 2.5, 5.0, 7.5, 10.0 μg/mL, 72 hrs, western blotting (FIG. 1(e))

Q: COc1ccc(/C=C/C(=O)Nc2ccccc2N)c(OCc2ccccc2)c1CC=C(C)C [NBM-C-BA-OS01, (E)-2-Benzoxy-3-prenyl-4-methoxy-N-(2-aminophenyl) cinamide] was tested. Which “acetylation of Histone H3 protein” value [1] did it give?
A: Hyperacetylation of Histone H3 protein was detected; also recorded: could induce the HDAC associated proteins expression

Q: And the changes in morphology ([2]; MCF-7 cells, 2.5, 5.0, 7.5 μg/mL, 72 hrs (FIG. 3(a)))?
A: exhibited changes in morphology

Q: What about the “inhibition of cell growth” value (Rat C6 glioma cells; 7.5 μg/mL, 48 hrs (FIG. 4)) of the same compound?
A: inhibited the Rat C6 glioma cell growth

Q: What about the changes in morphology (Rat C6 glioma cells; Rat C6 glioma cells, 2.5, 5.0, 7.5 μg/mL, 72 hrs (FIG. 3(b))) of the same compound?
A: exhibited changes in morphology

Q: What about the “inhibition of cell growth” value (Rat C6 glioma cells; 24 hrs, NBM-C-BA-OS01 5 μg/mL, others 2.5, 5.0 μg/mL (FIG. 5(a))) of the same compound?
A: inhibited the cell growth

Q: What does the source list for COc1ccc(/C=C\C(=O)NO)c(OCc2ccccc2)c1CC=C(C)C [NBM-C-BX-OS01, (Z)-2-Benzoxy-3-prenyl-4-methoxy-N-hydroxy-cinamide]?
A: acetylated tubulin protein expression [3]: Overexpression of acetylated tubulin protein was observed; also recorded: could induce the HDAC associated proteins expression; inhibition of cell growth ([2]; MCF-7 cells, various concentrations, 24 hrs (FIG. 2(b))): Inhibition of cancer cells growth was shown; also recorded: arrested the cell growth; inhibition of cell growth (Rat C6 glioma cells; [11]): Inhibition of cancer cells growth was shown; also recorded: arrested the cell growth; cell growth inhibition ([4]; 72 hrs, NBM-C-BX-OS01 7.5, others 2.5, 5.0, 7.5 μg/mL (FIG. 5(b))): induced A549 cells growth inhibition in a dose-dependent manner; also recorded: induced A549 cell growth inhibition in dose-dependent amounts; inhibition of cell growth ([4]; various concentrations, 48 hrs (FIG. 2(c))): Inhibition of cancer cells growth was shown; also recorded: arrested the cell growth; expression of acetylated H3 [5]: increased in a dose-dependent manner; expression of acetylated H4 [5]: increased in a dose-dependent manner; expression of acetylated-tubulin [5]: increased in a dose-dependent manner; expression of p21 [5]: increased in a dose-dependent manner

Q: For COc1ccc(/C=C\C(=O)OCc2ccccc2)c(OCc2ccccc2)c1CCC(C)(C)O [NBM-HB-OS01], which “inhibition of cell growth” value [6] is on record?
A: Inhibition of cancer cell growth

Q: And the “inhibition of cell growth” value ([6]; listed as NBM-HB-HB-OS01)?
A: Inhibition of cancer cells was shown

Q: And the Gelsolin protein expression [7]?
A: Overexpression of Gelsolin protein was observed; also recorded: could induce the HDAC associated proteins expression

Q: And the “inhibition of cell growth” value (Rat C6 glioma cells; [11])?
A: Inhibition of cancer cell growth

Q: And the “inhibition of cell growth” value (Rat C6 glioma cells; various concentrations, 48 hrs (FIG. 1(a), 2(a)), listed as NBM-HB-HB-OS01)?
A: Inhibition of cancer cells was shown

Q: What about the “p21 mRNA (gene) expression” value [8] of the same compound?
A: increased p21 gene expression; also recorded: induced p21 mRNA expression

Q: And the “cell cycle arrest phase” value [9]?
A: arrested the human lung cancer A549 cells on the G0/G1 phase in a dose-dependent manner

Q: And the “accumulation of p21” value ([10]; Rat C6 glioma cells, 10 μg/mL for 1, 2, 3 and 4 hrs (FIG. 1(f)))?
A: seen in a dose-dependent manner

Q: And the “accumulation of hyperacetylated histone H3” value [10, 12]?
A: detected in a dose-dependent manner

Q: And the “accumulation of hyperacetylated histone H4” value [10, 12]?
A: detected in a dose-dependent manner

Q: And the “accumulation of p21” value [10, 12]?
A: detected in a dose-dependent manner
